Measured values taken from patent publication US20250313546A1, “NUCLEIC ACID BINDERS” (UNIVERSITY OF STRATHCLYDE, priority 2022, published 2025).
In brackets after ≈: the same amount, converted by molar mass.

Key:
[1] = tested on: Staphylococcus aureus (ATCC 43300); experiment: Antibacterial MIC, broth microdilution (CLSI); type: cell-based; details: for S. aureus Selectivity Indices, Group / S. aureus Selectivity Index (SI): SI, IC50 (μM)/MIC80 (μM), HEK293 cytotoxicity; for S. aureus Selectivity Index (SI): numeric value; for MIC80: Staphylococcus aureus, ATCC43300, read-out: MIC80 S. aureus
[2] = tested on: Enterococcus faecalis (ATCC 51299); experiment: Antibacterial MIC, broth microdilution (CLSI); type: cell-based; details: for MIC80: Enterococcus faecalis, ATCC51299, read-out: MIC80 E. faecalis
[3] = tested on: Escherichia coli (ATCC 25922); experiment: Antibacterial MIC, broth microdilution (CLSI); type: cell-based; details: Escherichia coli, ATCC25922; read-out: MIC80 E. coli
[4] = tested on: Genomic double stranded DNA (salmon); experiment: Fluorescence intercalator displacement (FID) assay, SYBR-safe probe; details: 20 μM compound, 30° C., lower % = stronger binding
In short: (§1)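 Compound at 20 μM mixed with 3.76 ng/mL polyAU dsRNA or salmon genomic dsDNA and 12500-fold diluted SybrSafe in 1 mM phosphate buffer pH 7.4, then heated to 30 °C and fluorescence read. Reduction is expressed as normalised %, with nucleic acid plus probe as maximum and probe alone as minimum.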

[5] = tested on: PolyAU double stranded RNA; experiment: as above; details: 20 μM compound, 30° C., lower % = stronger binding
In short: as §1

C. neoformans (F10025) = details: Cryptococcus neoformans, read-out: MIC99 C. neoformans
[6] = tested on: A. fumigatus A1160 (MFIG001); details: Aspergillus fumigatus, read-out: MIC99 A. fumigatus A1160
[7] = tested on: Rhizopus arrhizus (NEQAS12.35321); details: read-out: MIC99 Rhizopus arrhizus
Candida auris (H.17.157) = details: for MIC99: Candidozyma auris, read-out: MIC99 Candida auris; for C. auris Selectivity Indices, Group: Alkyl Amidines and NH Pyrroles
[8] = tested on: Candida glabrata (ACPF3309); details: for MIC99: Nakaseomyces glabratus, read-out: MIC99 Candida glabrata; for C. glabrata Selectivity Indices, Group / C. glabrata Selectivity Index (SI): SI, IC50 (μM)/MIC99 (μg/mL), HEK293 cytotoxicity; for C. glabrata Selectivity Indices, Group: Alkyl Amidines and NH Pyrroles; for C. glabrata Selectivity Index (SI): numeric value
T. equiperdum = experiment: Resazurin-based (Alamar blue) drug sensitivity assay; details: Trypanosoma equiperdum, read-out: IC50 T. equiperdum
T. evansi AntTat 3/3 = experiment: as above; details: read-out: IC50 T. evansi
[9] = tested on: SARS-CoV-2 (hCoV-19/Australia/VIC01/2020); experiment: SARS-CoV-2 microplaque inhibition assay in Vero-E6 cells; type: cell-based; details: for SARS-CoV-2 Selectivity Indices, Group: Alkyl Amidines and NH Pyrroles; for IC50: Severe acute respiratory syndrome coronavirus 2, Vero C1008, plaque inhibition, Vero-E6 cells, read-out: IC50 SARS-CoV-2
Influenza (H1N1) = experiment: Accelerated Viral Neuraminidase Inhibition Assay (AVINA), A549 cells; type: cell-based; details: Influenza A virus, 72 h
T. vaginalis = experiment: Trichomonas resorufin assay; type: cell-based; details: Trichomonas vaginalis, read-out: IC50 T. vaginalis
[10] = SI, IC50 (μM)/MIC99 (μg/mL), HEK293 cytotoxicity
[11] = SI, IC50 (μM)/IC50 (μM), HEK293 cytotoxicity

Compound | S. aureus Selectivity Indices, Group ([1]; Alkyl Amidines and NH Pyrroles) | S. aureus Selectivity Index (SI) [1] | MIC80 [1] [µM] | MIC80 [2] [µM] | MIC80 [3] [µM] | % Normalised Fluorescence with gDNA [4] [%] | % Normalised Fluorescence with polyAU RNA [5] [%] | MIC99 (C. neoformans (F10025)) [µg/mL] | MIC99 [6] [µg/mL] | MIC99 [7] [µg/mL] | MIC99 (Candida auris (H.17.157)) [µg/mL] | C. auris Selectivity Indices, Group (Candida auris (H.17.157); [10]) | MIC99 [8] [µg/mL] | C. glabrata Selectivity Indices, Group [8] | IC50 (T. equiperdum) [nM] | IC50 (T. evansi AntTat 3/3) [nM] | further results
Cn1cc(NC(=O)c2ccc(/C=C/c3cnc4ccccc4c3)cc2)cc1C(=O)Nc1c[nH]c(C(=O)NCCC(=N)N)c1 [IIIa2, (E)-N-(5-((3-amino-3-iminopropyl)carbamoyl)-1H-pyrrol-3-yl)-1-methyl-4-(4-(2-(quinolin-3-yl)vinyl)benzamido)-1H-pyrrole-2-carboxamide] | D (D: SI > 10) | 11 | < 5 | > 100 | > 100 | 17 | 21 | < 5 | 5 to 25 (≈ 8.7 to 43.5 µM) | 25 to 50 (≈ 43.5 to 87 µM) | 5 to 25 (≈ 8.7 to 43.5 µM) | C (Group C 1 < SI <= 3) | < 5 | C (Group C 20 < SI <= 50) | 10 to 100 | 10 to 100 | C. auris Selectivity Index (SI) (Candida auris (H.17.157); SI, IC50 (μM)/MIC99 (μg/mL), HEK293 cytotoxicity, numeric value): 3; C. glabrata Selectivity Index (SI) [8]: 47
Cn1cc(NC(=O)c2cc(NC(=O)c3ccc(/C=C/c4cnc5ccccc5c4)cc3)c[nH]2)cc1C(=O)NCCC(=N)N [IIIa4, (E)-N-(3-amino-3-iminopropyl)-1-methyl-4-(4-(4-(2-(quinolin-3-yl)vinyl)benzamido)-1H-pyrrole-2-carboxamido)-1H-pyrrole-2-carboxamide] | D (D: SI > 10) | 81 | < 5 | < 5 | 25 to 100 (≈ 14.4 to 57.5 µg/mL) | 14 | 3 | < 5 | 5 to 25 (≈ 8.7 to 43.5 µM) | 5 to 25 (≈ 8.7 to 43.5 µM) | 25 to 50 (≈ 43.5 to 87 µM) | C (Group C 1 < SI <= 3) | < 5 | D (Group D: SI > 50) | < 10 | 10 to 100 | E. faecalis Selectivity Indices, Group ([2]; SI, IC50 (μM)/MIC80 (μM), HEK293 cytotoxicity, Alkyl Amidines and NH Pyrroles): D (D: SI > 10); E. faecalis Selectivity Index (SI) ([2]; SI, IC50 (μM)/MIC80 (μM), HEK293 cytotoxicity, numeric value): 41; C. glabrata Selectivity Index (SI) [8]: 652
CN(C)c1ccc(/C=C/c2ccc(C(=O)Nc3cc(C(=O)Nc4c[nH]c(C(=O)NCCC(=N)N)c4)n(C)c3)cn2)cc1 [IIIa7, (E)-N-(5-((5-((3-amino-3-iminopropyl)carbamoyl)-1H-pyrrol-3-yl)carbamoyl)-1-methyl-1H-pyrrol-3-yl)-6-(4-(dimethylamino)styryl)nicotinamide] | D (D: SI > 10) | 14 | < 5 | 5 to 25 (≈ 2.84 to 14.2 µg/mL) | 25 to 100 (≈ 14.2 to 56.8 µg/mL) | 13 | 20 | < 5 | 5 to 25 (≈ 8.81 to 44 µM) | 5 to 25 (≈ 8.81 to 44 µM) | 5 to 25 (≈ 8.81 to 44 µM) | C (Group C 1 < SI <= 3) | < 5 | B (Group B: 12 < SI <= 20) | > 1000 | > 1000 | SARS-CoV-2 Selectivity Indices, Group [9, 11]: C (Group C: 10 < SI <= 25); SARS-CoV-2 Selectivity Index (SI) ([9]; SI, IC50 (μM)/IC50 (μM), HEK293 cytotoxicity, numeric value): 24; IC50 [9]: < 2000 nM
N=C(N)CCNC(=O)c1cc(NC(=O)c2cc(NC(=O)c3ccc(/C=C/c4ccc5nonc5c4)cc3)c[nH]2)c[nH]1 [IIIa8, (E)-N-(3-amino-3-iminopropyl)-4-(4-(4-(2-(benzo[c][1,2,5]oxadiazol-5-yl)vinyl)benzamido)-1H-pyrrole-2-carboxamido)-1H-pyrrole-2-carboxamide] | – | – | 25 to 100 (≈ 13.8 to 55.2 µg/mL) | > 100 | > 100 | 31 | 10 | 5 to 25 (≈ 9.07 to 45.3 µM) | > 50 | > 50 | > 50 | – | > 50 | – | < 10 | 10 to 100 | –
Cn1cc(NC(=O)c2cc(NC(=O)c3ccc(/C=C/c4cnc5ccccc5c4)cc3)c[nH]2)cc1C(=O)NCCN1CCOCC1 [IIIb8, (E)-1-methyl-N-(2-morpholinoethyl)-4-(4-(4-(2-(quinolin-3-yl)vinyl)benzamido)-1H-pyrrole-2-carboxamido)-1H-pyrrole-2-carboxamide] | – | – | < 5 | > 100 | > 100 | 37 | 26 | – | – | – | – | – | – | – | < 10 | 10 to 100 | inhibition at 20 µM (Influenza (H1N1)): > 50%
[H]/N=C(\CCNC(=O)c1cc(NC(=O)c2cc(NC(=O)c3ccc(C=Cc4ccc(N(C)C)cc4)nc3)cn2C)cn1C)NCC [Ia1, (E)-6-(4-(dimethylamino)styryl)-N-(5-((5-((3-(ethylamino)-3-iminopropyl)carbamoyl)-1-methyl-1H-pyrrol-3-yl)carbamoyl)-1-methyl-1H-pyrrol-3-yl)nicotinamide] | B (Group B: 3 < SI <= 5) | – | 5 to 25 (≈ 3.05 to 15.2 µg/mL) | 25 to 100 (≈ 15.2 to 61 µg/mL) | > 100 | 13 | 5 | < 5 | 5 to 25 (≈ 8.2 to 41 µM) | > 50 | 5 to 25 (≈ 8.2 to 41 µM) | B (Group B: 0.4 < SI <= 1) | < 5 | – | 100 to 1000 | 10 to 100 | SARS-CoV-2 Selectivity Indices, Group [9, 11]: B (Group B: 4.1 < SI <= 10); IC50 [9]: 2000 to 8000 nM
CCCCCCCCCC[N+](C)(C)CCNC(=O)c1cc(NC(=O)c2cc(NC(=O)c3ccc(/C=C/c4cnc5ccccc5c4)cc3)cn2C)cn1C [Ic9, (E)-N,N-dimethyl-N-(2-(1-methyl-4-(1-methyl-4-(4-(2-(quinolin-3-yl)vinyl)benzamido)-1H-pyrrole-2-carboxamido)-1H-pyrrole-2-carboxamido)ethyl)decan-1-aminium] | – | – | < 5 | 5 to 25 | > 100 | – | – | 5 to 25 | > 50 | > 50 | > 50 | – | > 50 | – | 100 to 1000 | 10 to 100 | S. aureus Selectivity Indices, Group ([1]; Quaternary ammoniums): B (Group B: 2 < SI <= 5); E. faecalis Selectivity Indices, Group ([2]; SI, IC50 (μM)/MIC80 (μM), HEK293 cytotoxicity, Quaternary ammoniums): B (Group B: 0.7 < SI <= 2); IC50 (T. vaginalis): 5 to 50 µM
